Results on 5 molecules are retold here after patent US5504091A, “Biotin esters of rapamycin” (American Home Products Corporation, priority 1994, dated 1996).

pIC50: −log10 of the molar value. Read-outs that look alike come from different tables or passages of the source.

The test system of one assay is adjuvant arthritis model. Conditions: model for rheumatoid arthritis; Martel et al.; cited from earlier work.
In assay [1] the target is glutathione S-transferase-FK506 binding protein (GST-FKBP) (Homo sapiens, UniProt P62942). Description: Rapamycin Competitive Binding Assay using the Compound of Example 3, receptor based (Table 3). Particulars: compound of Example 3 50 ng/ml, 450 nm. The procedure: The following is an example of the use of the compounds of this invention in a receptor based assay to measure rapamycin levels using a rapamycin-binding protein and the compound of Example 3 as the ligand. Wells of microtiter plates were coated with 0.5 μg/well of the fusion protein, glutathione S-transferase-FK506 binding protein (GST-FKBP), in 100 μl of 0.02M HEPES buffer, pH 7.4. Plates were incubated overnight at 4° C. Plates were washed 3 × with HEPES buffer. Well surfaces were blocked by the addition of 1% bovine serum albumin fraction V (BSA) in HEPES buffer ([…]). Plates were incubated for 1 hour at ambient temperature. Plates were washed three times. Various concentrations of rapamycin were added to the compound of Example 3 (50 ng/ml) and 100 μl of the solutions were added to wells in triplicate. After incubation of the plates at ambient temperature followed by washing the plates with HEPES buffer, 100 μl of diluted avidin-horseradish peroxidase conjugate was added to each well. After incubation for 1 hour at ambient temperature and washing five times, 100 μl of tetramethylbenzidine substrate was added to each well. The plates were incubated for 30 minutes in the dark at ambient temperature. The reactions were stopped and the optical density was read at 450 nm.

In the next assay the test system is IgE-like antibodies. Particulars: Martel et al.; cited from earlier work.
Assay [2] concerns T-cell proliferation (cells from the thymus of normal C3H mice). Put plainly: comitogen-induced thymocyte proliferation procedure (LAF). The assay is classed as cell-based. Particulars: for pIC50 / inhibition at 0.0001 µM / inhibition at 0.001 µM / inhibition at 0.003 µM / inhibition at 0.01 µM / inhibition at 1 µM: Mus musculus, T-cell; for inhibition at 0.0001 µM: 0.1 nM (so in the source); for inhibition at 0.001 µM: 1 nM; for inhibition at 0.003 µM: 3 nM; for inhibition at 0.01 µM: 10 nM; for ratio compared to rapamycin: >1 = greater inhibition than rapamycin. The procedure:
Immunosuppressive activity for a representative compound of this invention was evaluated in an in vitro standard pharmacological test procedure to measure the inhibition of lymphocyte proliferation (LAF).
The comitogen-induced thymocyte proliferation procedure (LAF) was used as an in vitro measure of the immunosuppressive effects of representative compounds. Briefly, cells from the thymus of normal C3H mice are cultured for 72 hours with PHA and IL-1 and pulsed with tritiated thymidine during the last six hours. Cells are cultured with and without various concentrations of rapamycin, cyclosporin A, or test compound. Cells are harvested and incorporated radioactivity is determined. Inhibition of lymphoproliferation is assessed as percent change in counts per minute from non-drug treated controls. For each compound evaluated, rapamycin was also evaluated for the purpose of comparison. An IC50 was obtained for each test compound as well as for rapamycin. […] The results are also expressed as a ratio compared to rapamycin. A positive ratio indicates immunosuppressive activity. […] Calculation of the ratio is shown below. [formula]

Assay [3] deals with RAP-42-OVAF2#1MoAb. Description: FPIA competition of the binding between the antibody and A3 tracer. The text has this: (§1) The hybridoma cell line in P4G1 was cloned by limiting dilution and is designated as hybridoma cell line, RAP-42-OVAF2 #1hc-. The hybridoma cell line, RAP-42-OVAF2 #1hc, was deposited under the terms of the Budapest Treaty with the American Type Culture Collection (ATCC) of 12301 Parklawn Drive, Rockville, Md., 20852, U.S.A., on Mar. 10, 1994, and was granted accession number HB 11568. […] The ring opened rapamycin-specific antibody, designated as RAP-42-OVAF2 #1MoAb, was isolated and purified using conventional methodology.

Assay [4] has as its system experimental allergic encephalomyelitis model. Particulars: model for multiple sclerosis; Martel et al.; cited from earlier work.
The subject of assay [5] is rapamycin specific antibody. Description: competitive inhibition ELISA, binding of the compound of Example 3 to rapamycin specific antibody (Table 2). Particulars: for OD: compound of Example 3 0.17 μM, 492 nm. The procedure:
The compound of Example 3 was used as a representative compound of this invention. Microtiter plates (Immulon I) were coated overnight with 100 μl of goat anti-mouse antibody (10 μg/ml in 10 mM potassium phosphate buffer, pH 7.2) at 4° C. The plates were flicked and blocked with 100 μl of 1% bovine sera albumin in phosphate buffered saline overnight at 4° C. After flicking and washing the plates three times with 0.2×PBS containing 0.02% Triton X-100 and 0.004% thimerosal, rapamycin specific antibody (100 μl of 1 μg/ml) was added to each well and incubated at room temperature for 1-4 hour. After flicking and washing the plates three times with 0.2×PBS containing 0.02% Triton X- 100 and 0.004% thimerosal, the compound of Example 3 (100 μl, 0.17 μM) in the presence or absence of various concentrations of rapamycin was added and incubated for 1 hour. After flicking and washing the plates three times with 0.2×PBS containing 0.02% Triton X-100 and 0.004% thimerosal, streptavidin conjugated to horseradish peroxidase (100 μl, 0.2 μg/ml) was incubated at room temperature for 1 hour in the dark. After flicking and washing the plates three times with 0.2×PBS containing 0.02% Triton X-100 and 0.004% thimerosal, OPD substrate was added and the plates were incubated covered for 15 min. at room temperature in the dark. The optical density was read on a spectrophotometer at 492 nm.
For orientation: In an ELISA, binding on a coated surface is turned into a signal by an enzyme label.

The test system of a further assay is Streptavidin. Description: BIAcore binding of the compound of Example 3 to streptavidin conjugated matrix. Conditions: 2.5 mM injected. Background: In SPR one partner is held on a chip, and binding of the other changes the refractive index at the surface.
The test system of assay [6] is RAP-42-OVAF2#1MoAb. Description: Fluorescent Polarization Immunoassay (FPIA), tracer with antibody. The assay is classed as binding.
Description: as §1

A further assay relates to FKBP12. Put plainly: Fluorescent Polarization Immunoassay (FPIA), tracer with FKBP12. The class given is binding.
Description: as §1

The nature of assay [7]: Fluorescent Polarization Immunoassay (FPIA), tracer background.
Description: as §1

glutathione S-transferase-FK506 binding protein (GST-FKBP), sequence (P62942 2-108): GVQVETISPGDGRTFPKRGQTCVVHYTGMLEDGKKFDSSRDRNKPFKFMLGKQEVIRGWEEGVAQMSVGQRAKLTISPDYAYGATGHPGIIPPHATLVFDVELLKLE

As for `CO[C@H]1C[C@@H]2CC[C@@H](C)[C@@](O)(O2)C(=O)C(=O)N2CCCC[C@H]2C(=O)O[C@H]([C@H](C)C[C@@H]2CC[C@@H](O)[C@H](OC)C2)CC(=O)[C@H](C)/C=C(\C)[C@@H](O)[C@@H](OC)C(=O)[C@H](C)C[C@H](C)/C=C/C=C/C=C/1C` [rapamycin], the “effect in adjuvant arthritis model” value in the assay with adjuvant arthritis model is “effective”. In addition, the “Optical Density” value in assay [1] (rapamycin 1.5625 ng/ml) stood at 2.6160; in assay [1] (rapamycin 3.125 ng/ml), 2.3040; in assay [1] (rapamycin 6.25 ng/ml), 2.0557; in [1] (rapamycin 12.5 ng/ml), 1.3913; in [1] (rapamycin 25 ng/ml), 0.7473; in [1] (rapamycin 50 ng/ml) it was 0.3573. Besides, the “Optical Density” value worked out at 0.2433 in assay [1] (rapamycin 100 ng/ml) and 0.2177 in assay [1] (rapamycin 200 ng/ml). Further, the “inhibition of formation of IgE-like antibodies” value in the assay with IgE-like antibodies is “effectively inhibited”. The values for the pIC50 in assay [2] (first evaluation) and in assay [2] (second evaluation) were 8.17 and 9.10, respectively. In addition, the “polarization, competition of the binding between the antibody and A3 tracer” value came to 121 mP in the assay on RAP-42-OVAF2#1MoAb [3] (after 38 min) and 155 mP with RAP-42-OVAF2#1MoAb [3] (at 3 min). Moreover, in [4], the “effect in experimental allergic encephalomyelitis model” value was “effective”. Further, the “% INHIBITION of binding of the compound of Example 3” value in assay [5] (rapamycin 0.005 μM) was found to be 6.6%; in [5] (rapamycin 0.05 μM), 7.8%; in assay [5] (rapamycin 0.5 μM) it was 30.1%; in assay [5] (rapamycin 5 μM), 67.6%. In addition, the OD in assay [5] (rapamycin 0.005 μM) was 1.866; in assay [5] (rapamycin 0.05 μM) it was 1.842; in [5] (rapamycin 0.5 μM) it was 1.419; in [5] (rapamycin 5 μM) it was “.705”.
In the case of `CO[C@@H](C[C@@H]1CC[C@@H](C)[C@](O)(C(=O)C(=O)N2CCCC[C@H]2C(=O)O)O1)/C(C)=C/C=C/C=C/[C@@H](C)C[C@@H](C)C(=O)[C@H](OC)[C@H](O)/C(C)=C/[C@@H](C)C(=O)/C=C/[C@H](C)C[C@@H]1CC[C@@H](O)[C@H](OC)C1` [secorapamycin], the “polarization, competition of the binding between the antibody and A3 tracer” value came to 89 mP in the assay on RAP-42-OVAF2#1MoAb [3] (after 38 min) and 105 mP in the assay with RAP-42-OVAF2#1MoAb [3] (at 3 min).
As for `CO[C@H]1C[C@@H]2CC[C@@H](C)[C@@](O)(O2)C(=O)C(=O)N2CCCC[C@H]2C(=O)O[C@H]([C@H](C)C[C@@H]2CC[C@@H](OC(=O)CNC(=O)CCCC[C@@H]3SC[C@@H]4NC(=O)N[C@@H]43)[C@H](OC)C2)CC(=O)[C@H](C)/C=C(\C)[C@@H](O)[C@@H](OC)C(=O)[C@H](C)C[C@H](C)/C=C/C=C/C=C/1C` [Example 3, Rapamycin 42-ester with glycylbiotin], in [2] (first evaluation), the inhibition (commonly the change of the read-out against control, counted positive when it falls) at 0.0001 µM was determined as 98%; at 0.001 µM the inhibition was 46%; the inhibition at 0.003 µM was found to be 65%; the inhibition at 0.01 µM turned out to be 95%. Moreover, in assay [2] (first evaluation), the inhibition at 1 µM amounted to 99% and the “ratio compared to rapamycin” value amounted to 2.39. Further, in assay [2] (first evaluation, read-out: IC50), the negative-log IC50 (pIC50) (commonly the negative decadic logarithm of the IC50, by convention in mol/L) was 8.55. In [2] (second evaluation), the inhibition at 0.0001 µM came to 94%, the inhibition at 0.001 µM was determined as 16%, testing at 0.003 µM gave an inhibition of 51% and testing at 0.01 µM gave an inhibition of 88%. In addition, in assay [2] (second evaluation), the inhibition at 1 µM was 96% and the “ratio compared to rapamycin” value was 0.63. The negative logarithm of the IC50 (pIC50) in assay [2] (second evaluation, read-out: IC50) is 8.89. In addition, in the assay with Streptavidin, the resonance units bound turned out to be 115 resonance units.
As for `CO[C@H]1C[C@@H]2CC[C@@H](C)[C@@](O)(O2)C(=O)C(=O)N2CCCC[C@H]2C(=O)O[C@H]([C@H](C)C[C@@H]2CC[C@@H](OC(=O)CCC(=O)NCC(=O)Nc3ccc4c(c3)C(=O)OC43c4ccc(O)cc4Oc4cc(O)ccc43)[C@H](OC)C2)CC(=O)[C@H](C)/C=C(\C)[C@@H](O)[C@@H](OC)C(=O)[C@H](C)C[C@H](C)/C=C/C=C/C=C/1C` [rapamycin 42-ester with succinic acid conjugate with 5-glycinylfluoresceinamine], the polarization turned out to be 84 mP in the assay with RAP-42-OVAF2#1MoAb [6] (tracer 10 nM, excess of RAP-42-OVAF2#1MoAb); 195 mP in the assay with FKBP12 (tracer 10 nM, after addition of an excess of FKBP12); 77 mP in assay [7] (tracer alone, 10 nM, 100 mM sodium phosphate pH 7.5).
With “secorapamycin 42-ester with succinic acid conjugate with 5-fluoresceinamine [Example A3]”, the polarization reading with RAP-42-OVAF2#1MoAb [6] (A3 in presence of RAP-42-OVAF2#1MoAb) worked out at 178 mP; in the assay with FKBP12 (A3 in presence of FKBP12 (background levels)), 79 mP. Further, the “background reading (polarization)” value in assay [7] (A3 tracer alone) is recorded as 75 mP.
